Here are results for one compound from PMC9147192, “Small Molecule Arranged Thermal Proximity Coaggregation (smarTPCA)—A Novel Approach to Characterize Protein–Protein Interactions in Living Cells by Similar Isothermal Dose–Responses” (International Journal of Molecular Sciences, 2022).

One assay has as its target T1, POR (Homo sapiens, UniProt P16435).
T1 construct: endogenous in cells; host or cells: HL-60 (ATCC CCL-240)
T1 sequence (P16435 1-677): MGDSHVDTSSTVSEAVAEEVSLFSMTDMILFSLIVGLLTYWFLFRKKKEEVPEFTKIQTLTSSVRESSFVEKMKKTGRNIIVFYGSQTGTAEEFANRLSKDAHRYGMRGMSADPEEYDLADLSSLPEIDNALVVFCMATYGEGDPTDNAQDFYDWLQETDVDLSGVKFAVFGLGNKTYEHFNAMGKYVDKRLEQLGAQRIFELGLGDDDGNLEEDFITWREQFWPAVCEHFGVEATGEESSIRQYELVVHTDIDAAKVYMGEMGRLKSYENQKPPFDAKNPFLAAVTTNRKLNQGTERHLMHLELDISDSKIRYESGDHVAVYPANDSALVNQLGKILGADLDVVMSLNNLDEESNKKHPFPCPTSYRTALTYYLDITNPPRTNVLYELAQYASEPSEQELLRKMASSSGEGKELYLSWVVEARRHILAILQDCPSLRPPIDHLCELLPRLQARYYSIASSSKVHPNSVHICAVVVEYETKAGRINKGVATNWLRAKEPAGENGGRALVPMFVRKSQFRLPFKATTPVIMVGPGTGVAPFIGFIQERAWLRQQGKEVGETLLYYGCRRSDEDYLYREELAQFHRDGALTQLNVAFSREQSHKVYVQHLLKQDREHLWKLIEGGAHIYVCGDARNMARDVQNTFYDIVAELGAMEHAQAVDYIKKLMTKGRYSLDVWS
Nature of the assay: TPP-CCR in living HL-60 cells. Format: cell-based.

For another assay, the target named is T2, SCO1 (Homo sapiens, UniProt O75880).
T2 construct: endogenous in cells; host or cells: HL-60 (ATCC CCL-240)
T2 sequence (O75880 68-301): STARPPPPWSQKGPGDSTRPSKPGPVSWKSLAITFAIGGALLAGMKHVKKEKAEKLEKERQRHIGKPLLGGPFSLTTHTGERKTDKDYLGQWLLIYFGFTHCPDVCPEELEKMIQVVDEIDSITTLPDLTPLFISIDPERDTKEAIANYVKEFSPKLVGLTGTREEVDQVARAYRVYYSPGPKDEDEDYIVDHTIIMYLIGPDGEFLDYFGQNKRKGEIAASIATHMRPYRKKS
Nature of the assay: TPP-CCR in living HL-60 cells. Format: cell-based.

Where [1] appears, read: living HL-60 cells, […] °C, TMT-MS.

pEC50: −log10 of the molar value.

As a reminder, the Hill slope is a measure of the steepness of the concentration-response curve. What is called pEC50 is the negative decadic logarithm of the EC50, by convention in mol/L. A lower pEC50 goes with a large EC50. On POR (TPP-CCR, living cells, POR), `Cc1cnc(Nc2ccc(F)cc2Cl)nc1-c1c[nH]c(C(=O)N[C@H](CO)c2cccc(Cl)c2)c1` [ERK 11e] had a Hill slope of 0.73. On POR (setting [1]), the pEC50 is 5.89 and the “Hill slope (POR)” value came out at 0.73. This compound also gave a Hill slope on SCO1 (TPP-CCR, living cells, SCO1) of 1.25. The “Hill slope (SCO1)” value on SCO1 (setting [1]) was found to be 1.25. The EC50 on SCO1 (living HL-60 cells, […] °C, TMT-MS, read-out: pEC50 (SCO1) (converted)) was 2820 nM.
